Data set [1] addresses T1, human GLP-1 receptor (Homo sapiens, UniProt P43220).
T1 construct: expressed in transfected cells
As to the kind of experiment: cAMP production in cell line stably transformed with human GLP1 receptor, 30 min co-incubation (HTRF). Particulars: CHO-K1/GLP-1R/CRE-luc cells, stimulation for 0.5 h, read-out: EC50. Type of data set: cell-based. The method, then:
(§1) The purpose of this assay example is to test the ability of the compound to activate the human GLP-1 receptor on cell surface. The EC50 for stimulated cAMP production after activation characterizes the ability of the compound to activate the human GLP-1 receptor.
In this experiment, the compound and cells were co-incubated for 30 min.
(§2) Frozen cell line CHO-K1/GLP-1R/CRE-luc stably transformed with human GLP1 receptor was removed from a liquid nitrogen tank, and was placed in a 37°C water bath for rapid thawing. The cells were resuspended in DMEM/F12 medium, and after centrifugation, were washed once. The cells were resuspended in an experimental buffer, i.e., DMEM/F12 medium containing 0.1% casein. After centrifugation, cell density was adjusted using the experimental buffer. The cells were plated onto a 384-well plate at a density of 1500 cells/5 µL/well. Then, each well was added with 2.5 µL of IBMX working solution prepared with the buffer, the final concentration of IBMX being 0.5 mM, and 2.5 µL of a serially diluted compound sample (starting from […], 3-fold dilution, 12 concentrations). The plate was centrifuged at 1000 rpm for 1 min, and was stood for incubation at 37°C for 0.5 h. Determination was performed using the Cisbio cAMP - Gs Dynamic kit. cAMP-d2 and anti-cAMP-Eu3+-Cryptate were diluted 18-fold and 20-fold respectively with cAMP Lysis & Detection Buffer, and were respectively mixed homogeneously. Each well was added with 5 µL of diluted cAMP-d2 solution, and the plate was centrifuged at 1000 rpm for 1 min, and shaken for 30 seconds for homogeneous mixing. Then, each well was added with 5 µL of diluted anti-cAMP-Eu3+-Cryptate solution, and the plate was centrifuged at 1000 rpm for 1 min and was incubated in the dark at room temperature for 1 h. HTRF signals were read using the Biotek Synergy H1 microplate reader, the excitation wavelength being 320 nm and the emission wavelengths being 620 nm and 665 nm.
(§3) The signal-to-signal ratio was calculated (665 nm/620 nm * 10,000). Nonlinear fitting between the signal-to-signal ratio and the sample concentration was performed in GraphPad Prism 10 using a four-parameter equation to obtain the EC50 value.

A short description of data set [2]: Pharmacokinetic evaluation in mice, oral administration. Particulars: p.o. 5 mg/kg, plasma; for AUC(0-inf) / AUC(0-t) / Cmax / Tmax / MRT inf: mouse, in vivo, po; for MRT inf: read-out: MRT 0-∞. Type of data set: in vivo, Balb/c mice. The method, then: Balb/c mice were used as test animals to study the pharmacokinetic behavior of the compound of the present invention in mice (plasma) at a dose of 5 mg/kg administered orally and 1 mg/kg administered intravenously.
Balb/c mice, 3 per group, male.
(§4) Preparation of drug for oral administration: 10%PEG400/10%PG/80% glycine buffer (100 mM glycine, 64 Mm NaOH, […]) buffer.
10 ml of PEG400, 10 ml of PG, and 80 ml of (100 mM glycine, 64 Mm NaOH, pH = 9) were measured into a 100 ml volumetric flask, vortexed, mixed homogeneously, and sonicated to obtain a clear solution.
Single PK: An example compound was weighed into a 4 mL glass bottle. The solution was added, and sonication was performed for 10 min to obtain a colorless clear solution having a concentration of 0.5 mg/mL.
The solution was added, and sonication was performed for 10 min to obtain a colorless clear solution having a concentration of 0.5 mg/mL.
Three Balb/c mice, male, respectively administered p.o. after fasting overnight, at a dose of 5 mg/kg and in an administration volume of 10 mL/kg.
The blood samples were placed in EDTA-K2 anticoagulant tubes and centrifuged at 6000 rpm at 4°C for 6 min to separate plasma, which was stored at -80°C. The mice were fed 4 h after administration.
(§5) • 1) 40 µL of a plasma sample was added with 160 µL of acetonitrile for precipitation, and after mixing, the mixture was centrifuged at 3500 × g for 5 to 20 min. • 2) The supernatant solution after treatment was taken for LC/MS/MS analysis of the concentration of the test compound. The LC/MS/MS analysis instrument was AB Sciex API 4000 Qtrap.
• Liquid phase condition: Shimadzu LC-20AD pump • Chromatographic column: Agilent ZORBAX XDB-C18 (50×2.1 mm, 3.5 µm) Mobile phase: Solution A was 0.1% formic acid aqueous solution, and Solution B was acetonitrile • Flow rate: 0.4 mL/min • Elution time: 0-4.0 min, the eluent was as follows:
Main pharmacokinetic parameters were calculated using WinNonlin 6.1.

Data set [3] addresses T1, human GLP-1 receptor. The experiment in a line: cAMP production in cell line stably transformed with human GLP1 receptor, 2 h co-incubation (HTRF). As to conditions: CHO-K1/GLP-1R/CRE-luc cells, stimulation for 2 h, read-out: EC50. Type of data set: cell-based. As for the experimental part:
as §1
In this experiment, the compound and cells were co-incubated for 2 h.
as §2, with “for 2” for “for 0.5”
as §3
On the technique in general: Changes in cAMP serve as a functional read-out for many G protein-coupled receptors.

A short description of data set [4]: Pharmacokinetic evaluation in beagles, oral administration. Type of data set: in vivo. Particulars: dog, po, p.o. 2 mg/kg, plasma. As for the experimental part: Beagles were used as test animals to study the pharmacokinetic behavior of the compound of the present invention, administered orally at a dose of 2 mg/kg, in beagles (plasma).
Beagles, 3 per group, male.
as §4
Single PK: The compound of the present invention was weighed into a 100 mL glass bottle, and the solution was added. The pH was first adjusted with 1 M NaOH until the compound dissolves to obtain a clear solution, and then the pH was readjusted to pH 9.0-9.5 with 1 M HCl. Sonication was performed for 10 min to obtain a colorless clear solution having a concentration of 0.4 mg/mL.
Three beagles, male, respectively administered p.o. after fasting overnight, at a dose of 2 mg/kg and in an administration volume of 5 mL/kg.
Blood collection: 0.3 mL of blood was collected from the forelimb vein of the beagles before administration and at 0.25, 0.5, 1, 2, 4, 6, 8, and 24 h after administration. The blood samples were placed in EDTA-K2 anticoagulant tubes and centrifuged at 6000 rpm at 4°C for 6 min to separate plasma, which was stored at -80°C. The beagles were fed 4 h after administration.
as §5
• Liquid phase condition: Shimadzu LC-20AD pump • Chromatographic column: Agilent ZORBAX XDB-C18 (50×2.1 mm, 3.5 µm) Mobile phase: Solution A was 0.1% formic acid aqueous solution, and Solution B was acetonitrile • Flow rate: 0.4 mL/min • Elution time: 0-4.0 min, the eluent was as follows: […]

The mark [5] stands for this setting: not marked single PK (cassette PK).

T1 sequence (P43220 24-463): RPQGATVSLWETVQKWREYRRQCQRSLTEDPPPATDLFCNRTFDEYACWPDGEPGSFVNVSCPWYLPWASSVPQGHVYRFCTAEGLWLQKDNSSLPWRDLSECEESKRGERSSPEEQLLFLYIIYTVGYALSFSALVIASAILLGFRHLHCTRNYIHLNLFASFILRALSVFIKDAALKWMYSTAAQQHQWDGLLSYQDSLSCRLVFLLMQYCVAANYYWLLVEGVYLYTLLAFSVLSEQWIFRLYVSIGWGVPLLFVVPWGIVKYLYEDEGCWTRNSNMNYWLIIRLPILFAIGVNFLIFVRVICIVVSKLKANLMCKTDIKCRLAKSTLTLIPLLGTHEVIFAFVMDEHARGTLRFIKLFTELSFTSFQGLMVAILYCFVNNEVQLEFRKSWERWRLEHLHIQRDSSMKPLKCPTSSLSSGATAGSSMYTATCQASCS

Regarding `Cc1cc(-n2nc3c(c2-n2ccn(-c4ccc(CC(=O)N(C)C)cc4F)c2=O)[C@H](C)N(C(=O)c2cc4cc([C@H]5CCOC(C)(C)C5)ccc4n2[C@@]2(c4noc(=O)[nH]4)C[C@@H]2C)CC3)cc(C)c1F` [Example 7], the half-maximal effective concentration (EC50) in data set [1] was determined as 300 pM. Besides, in data set [2] (setting [5]), the AUC(0-inf) was 10800 ng·h/mL, the AUC(0-t) worked out at 10300 ng·h/mL, the maximum concentration (Cmax) stood at 2970 ng/mL and the Tmax is 0.5 h. For the same compound, in data set [2] (setting [5]), the MRT inf came to 2.8 h and the tl/2 was 1.6 h.

Take `Cc1cc(-n2nc3c(c2-n2ccn(-c4ccc5c(c4)CCc4nnc(C)n4-5)c2=O)[C@H](C)N(C(=O)c2cc4cc([C@H]5CCOC(C)(C)C5)ccc4n2[C@@]2(c4noc(=O)[nH]4)C[C@@H]2C)CC3)cc(C)c1F` [Example 8]: the 50% effective concentration (EC50) in data set [1] came out at 510 pM.

For the compound `Cc1cc(-n2nc3c(c2-n2ccn(-c4ccc5c(c4F)C4(CC4)C(=O)N5C)c2=O)[C@H](C)N(C(=O)c2cc4cc([C@H]5CCOC(C)(C)C5)ccc4n2[C@@]2(c4noc(=O)[nH]4)C[C@@H]2C)CC3)cc(C)c1F` [Example 15], in data set [1], the concentration for a half-maximal effect (EC50) amounted to 320 pM.

With `Cc1cc(-n2nc3c(c2-n2ccn(-c4ccc5c(c4)OCc4nnc(C)n4-5)c2=O)[C@H](C)N(C(=O)c2cc4cc([C@H]5CCOC(C)(C)C5)ccc4n2[C@@]2(c4noc(=O)[nH]4)C[C@@H]2C)CC3)cc(C)c1F` [Example 19], the concentration giving a half-maximal response (EC50) in data set [1] worked out at 880 pM.

Consider `Cc1cc(-n2nc3c(c2-n2ccn(-c4cc5c6c(c4)OCC(=O)N6CCC5)c2=O)[C@H](C)N(C(=O)c2cc4cc([C@H]5CCOC(C)(C)C5)ccc4n2[C@@]2(c4noc(=O)[nH]4)C[C@@H]2C)CC3)cc(C)c1F` [Example 41], for which the EC50 in data set [1] stood at 900 pM.

As for `[2H]C([2H])([2H])N1C(=O)C2CC2c2cc(-n3ccn(-c4c5c(nn4-c4cc(C)c(F)c(C)c4)CCN(C(=O)c4cc6cc([C@H]7CCOC(C)(C)C7)ccc6n4[C@@]4(c6noc(=O)[nH]6)C[C@@H]4C)[C@H]5C)c3=O)ccc21` (some centres unmarked) [Example 61], the EC50 in data set [1] was found to be 1390 pM.

Take `[2H]C([2H])([2H])N1C(=O)C2(CC2)c2cc(-n3ccn(-c4c5c(nn4-c4cc(C)c(C#N)c(C)c4)CCN(C(=O)c4cc6cc([C@H]7CCOC(C)(C)C7)ccc6n4[C@@]4(c6noc(=O)[nH]6)C[C@@H]4C)[C@H]5C)c3=O)ccc21` [Example 162]: the 50% effective concentration (EC50) stood at 250 pM in data set [1] and 100 pM in data set [3].

As to `[2H]C([2H])([2H])n1nc2c3c(c(-n4ccn(-c5c6c(nn5-c5cc(C)c(F)c(C)c5)CCN(C(=O)c5cc7cc([C@H]8CCOC(C)(C)C8)ccc7n5[C@@]5(c7noc(=O)[nH]7)C[C@@H]5C#C)[C@H]6C)c4=O)ccc31)OCCC2` [Example 287, 3-((1S,2R)-1-(5-((S)-2,2-dimethyltetrahydro-2H-pyran-4-yl)-2-((S)-2-(4-fluoro-3,5-dimethylphenyl)-4-methyl-3-(3-(2-(methyl-d3)-2,7,8,9-tetrahydrooxaheptano[4,3,2-cd]indazol-5-yl)-2-carbonyl-2,3-dihydro-1H-imidazol-1-yl)-4,5,6,7-tetrahydro-2H-pyrazolo[4,3-c]pyridine-5-carbonyl)-1H-indol-1-yl)-2-ethynylcyclopropyl)-1,2,4-oxadiazol-5(4H)-one], the EC50 in data set [1] turned out to be 900 pM. For the same compound, in data set [2] (single PK), the AUC(0-inf) was 28000 ng·h/mL, the AUC(0-t) was determined as 27900 ng·h/mL, the Cmax is 5320 ng/mL and the time of peak concentration (Tmax) was found to be 1 h. In data set [2] (single PK), the MRT inf came out at 4.2 h and the tl/2 was determined as 3.0 h. For the same compound, in data set [4], the AUC(0-inf) was 17200 ng·h/mL, the AUC(0-t) at 24 h was 17000 ng·h/mL and the half-life was 3.7 h. Further, in data set [4] (read-out: Cmax), the Cmax was 1880 ng/mL. Also, the MRT inf in data set [4] (read-out: MRT 0-∞) was 6.1 h. The Tmax in data set [4] (read-out: tmax) is 2.3 h.

As to `Cc1cc(-n2nc3c(c2-n2ccn(-c4ccc5c(c4F)CCc4nnc(C)n4-5)c2=O)[C@H](C)N(C(=O)c2cc4cc([C@H]5CCOC(C)(C)C5)ccc4n2[C@@]2(c4noc(=O)[nH]4)C[C@@H]2C)CC3)cc(C)c1F` [Example 339], the EC50 in data set [1] was determined as 510 pM.

With `Cc1cc(-n2nc3c(c2-n2ccn(-c4ccc5c(c4)CCc4nnnn4-5)c2=O)[C@H](C)N(C(=O)c2cc4cc([C@H]5CCOC(C)(C)C5)ccc4n2[C@@]2(c4noc(=O)[nH]4)C[C@@H]2C)CC3)cc(C)c1F` [Example 342], the EC50 in data set [1] was 1500 pM.

The EC50 is the concentration giving half of the maximal effect. In general, AUC(0-inf) refers to total exposure, with the tail of the curve extrapolated. A high value points to high exposure. For orientation: AUC(0-t) means exposure summed from dosing to a finite time, without extrapolation to infinity. By Cmax is commonly meant the peak of the concentration-time curve. Usually Tmax stands for the time at which the peak concentration occurs. The half-life is how long it takes for the measured level to halve.

Values taken from patent EP4755885A1 (Shanghai Hansoh Biomedical Co., Ltd., priority 2023, dated 2025).
